Earlier results in patent CN114794330A, “一种调节水生动物活力状态的功能性调理剂及其制备方法” (Nori Shanghai Bioengineering Co ltd, priority 2022, dated 2022).

solubility in 95% ethanol (95% ethanol, 17℃): 0.004%
solubility in acetone (acetone): 不溶
solubility in anhydrous ethanol (anhydrous ethanol): 不溶
solubility in diethyl ether (diethyl ether): 不溶
solubility in water (water, 12℃): 0.5%
Compound: NCCS(=O)(=O)O [牛磺酸, 2-氨基乙磺酸]
